Assay results taken from patent publication US20030044412A1, “Membrane estrogen receptor-directed therapy in breast cancer” (priority 2002, published 2003).
Read-outs that look alike come from different tables or passages of the source.

How the values were obtained:
[1] = system: MCF-7 human breast cancer cells; experiment: Assay of cell proliferation in vitro (cell counts); assay type: cell-based; details: for cell growth after brief treatment with BSA conjugate: 0.5 μM for 10 min, 72 h in estrogen-free media
[2] = system: MAPK, ERK-1 (p44) and ERK-2 (p42); experiment: p44/42 MAPK phosphorylation/activity in MCF-7 cells; assay type: cell-based, human
Akt kinase = Akt kinase activity (phosphorylated GSK-3 densitometry) in MCF-7 cells; assay type: cell-based, human
[3] = system: surface membrane ER of MCF-7 (MCF-7 PAR) breast cancer cells; experiment: Membrane labeling with E2β-BSA-FITC, fluorescent microscopy and flow cytometry; assay type: binding, human
[4] = system: MAPK, ERK-1 (p44) and ERK-2 (p42); details: independent report (40); cited from earlier work
estrogen receptor = experiment: Serine phosphorylation of estrogen receptor in human breast cancer cells; assay type: cell-based; details: prior exposure, 15 minutes after estrogen
Procedure: FIG. 12 is a gel showing that the MAPKK (MEK) inhibitor, PD 98059 (PD), reduces estrogen (E2)-induced serine phosphorylation of estrogen receptor. Serine phosphorylation of estrogen receptor in human breast cancer cells was assessed at 15-60 min after treatment with E2 alone or in combination with PD 98059
This blockade of estrogen-induced MAP kinase activation by PD 980959 results in the suppression of estrogen-induced growth of MCF-7 breast cancer cells (see FIG. 13).

[5] = biological target: plasma membranes from MCF-7 human breast cancer cells (membrane-associated estrogen receptor) (Homo sapiens, UniProt P03372); details: 100-fold molar excess of competitor
[6] = biological target: T1, HER-2 receptor / estrogen receptor association (Homo sapiens, UniProt P04626+P21860); experiment: Immunoprecipitation/Western blot of HER-2 receptor with ER; assay type: cell-based; details: 10 nM, 5-60 minutes, MCF-7 cells
T1 construct: endogenous in cells; host or cells: MCF-7 PAR
Procedure: MCF-7 breast cancer cells were treated in vitro for 5-60 minutes with 10 nM heregulin, a ligand known to activate HER-2/HER-3 receptors (3). Lysates were prepared and processed as described before (3). Samples were immunoprecipitated with anti-HER-2 antibody (IP:HER-2 receptor) prior to electrophoresis and Western blotting with anti-ER antibody H222 (IB: estrogen receptor). Estrogen receptor normally occurs as a 65- to 70-kd protein (3). The experiment shown here is representative of results from 4 other experiments. In independent experiments in which samples were immunoprecipitated with anti-ER antibody prior to electrophoresis and Western blotting with anti-HER-2 antibody, a similar association between ER and HER-2 receptors was found.
To further evaluate prior reports of cross-communication between ER and HER-2 receptors (3,24,29,54), MCF-7 PAR cells were treated in vitro with heregulin, a ligand for activation of HER-2/HER-3 receptor heterodimers (3). […] MCF-7 breast cancer cells were treated in vitro for 5-60 minutes with 10 nM heregulin, a ligand known to activate HER-2/HER-3 receptors (3). Lysates were prepared and processed as described before (3). Samples were immunoprecipitated with anti-HER-2 antibody (IP: HER-2 receptor) prior to electrophoresis and Western blotting with anti-ER antibody H222 (IB: estrogen receptor). […]

6 keto-17α-estradiol 6-(o-carboximethyloxime:BSA [Ab E2α-BSA]
cell growth after brief treatment with BSA conjugate [1]: not

17β-estradiol 17-hemisuccinate covalently linked to bovine serum albumin [Ab E2β-BSA]
cell growth after brief treatment with BSA conjugate [1]: stimulates cell growth | proliferative response to short-term treatment ([1]; 10 min treatment, counted after 48 hrs in estrogen-free media, P<0.001): stimulate cell growth | phosphorylation of MAPK isoforms ([2]; 10 nM E2β, E2α, 0.5 μM BSA conjugates): phosphorylation of MAPK isoforms is again evident | activation of Akt kinase (Akt kinase; 10 nM E2β or 0.5 μM E2β-BSA for 20 min): significant activation

N#CC(=C(/N)Sc1ccccc1N)/C(C#N)=C(\N)Sc1ccccc1N [Ab U0126]
Inhibition of MCF-7 cell growth ([1]; 10 μM for 2 h before VH, 10 nM E2 or 1 μM E2-BSA, 72 h): Inhibition | inhibition of MAPK phosphorylation/activation induced by E2β or E2β-BSA ([2]; Ab2 10 μg/ml 2 h or U0126 25 μM 90 min preincubation): prevented activation

C[C@]12CC[C@@H]3c4ccc(O)cc4C[C@@H](CCCCCCCCC[S+]([O-])CCCC(F)(F)C(F)(F)F)[C@H]3[C@@H]1CC[C@@H]2O (stereo partly drawn) [ICI 182,780]
competition for E2β-BSA-FITC surface binding (flow cytometry) [3]: significant reduction | competition for membrane-associated binding of E2β-BSA-FITC [3]: competitively reduced | blockade of proliferative effect of E2β-BSA ([1]; 10 nM ICI 182,780 with 200 nM E2-BSA, 10 min, 48 hrs): blocked | blockade of proliferative effect of E2β-BSA ([1]; 0.5 μM E2β-BSA 10 min, 72 h): blocked | inhibition of estrogen-induced Akt kinase activation (Akt kinase; preincubation: Ab2 10 μg/ml, ICI 182,780 1 μM, LY294002 10 μM): inhibition | inhibition of estrogen-induced MAPK activity in MCF-7 cells [4]: inhibit

COc1cccc(-c2cc(=O)c3ccccc3o2)c1N [PD 98059]
suppression of estrogen-induced growth ([1]; 20 micromolar inhibitor, estradiol-17β at 2 nM): suppression | blockade of estradiol activation of MAP kinase ([2]; pre-treatment, 20 μM): blocked | suppression of estrogen-induced serine phosphorylation of the estrogen receptor (estrogen receptor): suppressed

CC(=O)[C@H]1CC[C@H]2[C@@H]3CCC4=CC(=O)CC[C@]4(C)[C@H]3CC[C@]12C [progesterone]
competition for membrane-associated binding of E2β-BSA-FITC ([3]; MCF-7 PAR cells, Ab 1 at 1 μg/ml): not | competition for E2β-BSA-FITC surface binding (flow cytometry) ([3]; MCF-7 cells, P<0.01): not effective | suppression of [3H]E2β binding to PM by unlabeled competing steroid [5]: essentially uninfluenced

C[C@]12CC[C@H]3[C@@H](CCC4=CC(=O)CC[C@@]43C)[C@@H]1CC[C@@H]2O [testosterone]
suppression of [3H]E2β binding to PM by unlabeled competing steroid [5]: essentially uninfluenced

heregulin
physical association of HER-2 receptor with estrogen receptor [6]: promotes physical association
